Legend:
[1] = system: analgesia produced by intraventricular HTyr-D-Ala-Gly-Phe-D-Leu-NH2; test: Antagonism of enkephalin analog-induced analgesia, tail-flick test; assay type: in vivo, rat; details: rats, HTyr-D-Ala-Gly-Phe-D-Leu-NH2 1 μg intraventricular
Protocol: (§1) Duration of analgesia may conveniently be determined by testing for analgesia at regular intervals using a modification of the procedure of D'Amour and Smith, J. Pharmacol., 72, 74 (1941), the tail-flick test. In this test, the existence of analgesia in a rat is determined by measuring the increase in the latency period during which a rat will tolerate a high intensity light beam shining on the tip of its tail.
^a The procedure is the same as in Example 11 except that analgesia
was produced by an intraventricular injection of
HTyr-D-Ala-Gly-Phe-D-Leu-NH2, 1 μg. in 10 μ1. of Ringers
^b The duration score was the same as in Table 1.

[2] = system: morphine-induced analgesia; test: Antagonism of morphine-induced analgesia, tail-flick test; assay type: in vivo, rat; details: rats, tail-flick latency >8 sec
Protocol: as §1
^a All rats were tested at 5minute intervals in the tailflick test
until latencies of 2 to 5 sec. were obtained on three consecutive trials.
All rats then received an injection of morphine sulfate (as indicated in
the table) and were returned to the tailflick test until three consecutiv
trials with no movement of the tail for 8 seconds were obtained. The rats
then received a subcutaneous injection of the test compound, or a control
injection, and were returned to the tailflick test to determine the
^b The duration score is the number of minutes the animal was
completely analgesic (tailflick latency >8 sec.) following injection of […]

[3] = morphine sulfate 2.5 mg/kg subcutaneously, test compound 2.5 mg/kg s.c.
[4] = morphine sulfate 2.5 mg/kg subcutaneously, test compound 5 mg/kg s.c.
[5] = morphine sulfate 5 mg/kg intraperitoneally, test compound 5 mg/kg s.c.

SMILES | Mean Duration of Analgesia ([1]; test compound 5 mg/kg s.c.) | Mean Duration of Analgesia ([2]; morphine sulfate 2.5 mg/kg subcutaneously, test compound 1 mg/kg s.c.) | Mean Duration of Analgesia [2, 3] | Mean Duration of Analgesia [2, 4] | Mean Duration of Analgesia [2, 5] | Mean Duration of Analgesia ([1]; test compound 1.25 mg/kg s.c.) | Mean Duration of Analgesia ([1]; test compound 10 mg/kg s.c.) | Mean Duration of Analgesia ([2]; morphine sulfate 5 mg/kg intraperitoneally, test compound 2.5 mg/kg s.c.)
C[C@@H](NC(=O)[C@@H](N)Cc1ccc(O)cc1)C(N)=O [H-Tyr-D-Ala-NH2] | 31.0 min | > 90.00 min | 55.00 min | 40.00 min | 41.67 min | – | – | –
COC(=O)[C@@H](C)NC(=O)[C@@H](N)Cc1ccc(O)cc1 [H-Tyr-D-Ala-O-Me, H-Tyr-D-Ala-OMe] | 5.0 min | – | 45.00 min | 61.67 min | 27.50 min | 20.0 min | 50.0 min | 37.50 min

Source: US4205069A, “Dipeptide narcotic antagonists” (American Home Products Corporation, priority 1978, dated 1980)
